From patent US11414424B2, “Cardiac sarcomere inhibitors” (Cytokinetics, Inc., priority 2018, dated 2022)

test system: bovine cardiac myofibrils; test: Myofibril assay: PK/LDH-coupled steady-state ATPase activity of skinned bovine cardiac myofibrils; assay type: biochemical; details: Ca2+ activating to 75% of maximal rate
Procedure, shortened: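 Steady-state ATPase of detergent-skinned bovine left-ventricular myofibrils (1 mg/mL), PK/LDH-coupled NADH read at 340 nm, in PIPES/MgCl2 buffer pH 6.8 with 50 μM ATP, 0.6 mM EGTA and CaCl2 set for 50% or 75% activation. Inhibition of activity measured.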

Row | SMILES | CDMF75 IC15
1 | CCC(=O)N1CC2(C1)C(=O)N(c1ccc(C#N)cc1)CC(=O)N2Cc1ccc(C(F)(F)F)cc1 [Compound 187, 4-(6,9-dioxo-2-propionyl-5-(4-(trifluoromethyl)benzyl)-2,5,8-triazaspiro[3.5]nonan-8-yl)benzonitrile] | 15900 nM
2 | COC(=O)N1CC2(C1)C(=O)N(c1ccc(C#N)cc1)CC(=O)N2Cc1ccc(C(F)(F)F)cc1 [Compound 188, methyl 8-(4-cyanophenyl)-6,9-dioxo-5-(4-(trifluoromethyl)benzyl)-2,5,8-triazaspiro[3.5]-nonane-2-carboxylate] | 2600 nM
3 | CNC(=S)N1CC2(C1)C(=O)N(c1ccc(C#N)cc1)CC(=O)N2Cc1ccc(C(F)(F)F)cc1 [Compound 189, 8-(4-cyanophenyl)-N-methyl-6,9-dioxo-5-(4-(trifluoromethyl)benzyl)-2,5,8-triazaspiro[3.5]-nonane-2-carbothioamide] | 1400 nM
4 | N#Cc1ccc(N2CC(=O)N(Cc3ccc(C(F)(F)F)cc3)C3(CN(C=O)C3)C2=O)cc1 [Compound 190, 4-(2-formyl-6,9-dioxo-5-(4-(trifluoromethyl)benzyl)-2,5,8-triazaspiro[3.5]nonan-8-yl)benzonitrile] | 4000 nM
5 | N#Cc1ccc(N2CC(=O)N(Cc3ccc(C(F)(F)F)cc3)C3(CN(CC(F)F)C3)C2=O)cc1 [Compound 191, 4-(2-(2,2-difluoroethyl)-6,9-dioxo-5-(4-(trifluoromethyl)benzyl)-2,5,8-triazaspiro[3.5]nonan-8-yl)benzonitrile] | 14300 nM
6 | N#Cc1ccc(N2CC(=O)N(Cc3ccc(C(F)(F)F)cc3)C3(CN(c4ccc(C#N)cn4)C3)C2=O)cc1 [Compound 192, 6-(8-(4-cyanophenyl)-6,9-dioxo-5-(4-(trifluoromethyl)benzyl)-2,5,8-triazaspiro[3.5]nonan-2-yl)nicotinonitrile] | 600 nM
7 | N#Cc1ccc(N2CC(=O)N(Cc3ccc(C(F)(F)F)cc3)C3(CN(CC(F)F)C3)C2=O)cc1F [Compound 193, 4-(2-(2,2-difluoroethyl)-6,9-dioxo-5-(4-(trifluoromethyl)benzyl)-2,5,8-triazaspiro[3.5]nonan-8-yl)-2-fluorobenzonitrile] | 1700 nM
8 | N#Cc1ccc(N2CC(=O)N(Cc3ccc(C(F)(F)F)cc3)C3(CN(C=O)C3)C2=O)cc1F [Compound 194, 2-fluoro-4-(2-formyl-6,9-dioxo-5-(4-(trifluoromethyl)benzyl)-2,5,8-triazaspiro[3.5]nonan-8-yl)benzonitrile] | 400 nM
9 | CNC(=S)N1CC2(C1)C(=O)N(c1ccc(C#N)c(F)c1)CC(=O)N2Cc1ccc(C(F)(F)F)cc1 [Compound 195, 8-(4-cyano-3-fluorophenyl)-N-methyl-6,9-dioxo-5-(4-(trifluoromethyl)benzyl)-2,5,8-triazaspiro[3.5]nonane-2-carbothioamide] | 400 nM
10 | COC(=O)N1CC2(C1)C(=O)N(c1ccc(C#N)c(F)c1)CC(=O)N2Cc1ccc(C(F)(F)F)cc1 [Compound 196, methyl 8-(4-cyano-3-fluorophenyl)-6,9-dioxo-5-(4-(trifluoromethyl)benzyl)-2,5,8-triazaspiro[3.5]nonane-2-carboxylate] | 400 nM
11 | CC(=O)N1CC2(C1)C(=O)N(c1ccc(C#N)c(F)c1)CC(=O)N2Cc1ccc(C(F)(F)F)cc1 [Compound 197, 4-(2-acetyl-6,9-dioxo-5-(4-(trifluoromethyl)benzyl)-2,5,8-triazaspiro[3.5]nonan-8-yl)-2-fluorobenzonitrile] | 2700 nM
12 | N#Cc1ccc(N2CC(=O)N(Cc3ccc(C(F)(F)F)cc3)C3(CN(C(N)=O)C3)C2=O)cc1F [Compound 198, 8-(4-cyano-3-fluorophenyl)-6,9-dioxo-5-(4-(trifluoromethyl)benzyl)-2,5,8-triazaspiro[3.5]nonane-2-carboxamide] | 500 nM
